Tested on: Culex pipiens and Aedes Egypti late 3rd instar larvae
Assay: Mosquito larvae mortality in cups of tap water
Format: in vivo
Conditions: 20 larvae in 150 mL tap water
Method: A series of control experiments are conducted to study the effect of aqueous hydrogen peroxide and saponin extract on mosquito larvae, individually, and in combination. In a series of 30 experiments, 20 Culex pipiens and Aedes Egypti in the late 3rd instar larvae are placed in a cup containing 150 mL of tap water. In separate experiments, the larvae are exposed to varying concentrations of hydrogen peroxide saponin extract. The mortality is recorded over a 5-day period.

Compound: OO [hydrogen peroxide]
- concentration needed to achieve 50% larvae mortality in 24 hrs: > 100 ppm
